Laboratory results reported in ChEMBL document CHEMBL1150498, “Novel derivatives of pseudomonic acid” (Bioorg Med Chem Lett, 1997).
≈ marks a conversion by molar mass, not a printed value.

Test system: Staphylococcus aureus
Assay: Compound was evaluated for inhibitory activity against Staphylococcus aureus ATCC 6538P
Format: functional

| SMILES | MIC |
| --- | --- |
| CCCS(=O)(=O)N[C@H]1CO[C@@H](C/C=C/C(=O)OCCCCCCCCC(=O)OC)[C@H](O)[C@@H]1O | > 100 µg/mL |
| COC(=O)CCCCCCCCOC(=O)/C=C/C[C@@H]1OC[C@H](NS(C)(=O)=O)[C@@H](O)[C@H]1O | > 100 µg/mL |
| CCCCS(=O)(=O)N[C@H]1CO[C@@H](C/C=C/C(=O)OCCCCCCCCC(=O)OC)[C@H](O)[C@@H]1O | > 100 µg/mL |

The next compounds have a lower MIC than those just listed; values first:

| MIC | SMILES |
| --- | --- |
| 50 µg/mL (≈ 94.7 µM) | COC(=O)CCCCCCCCOC(=O)/C=C/C[C@@H]1OC[C@H](NS(=O)(=O)CCCCl)[C@@H](O)[C@H]1O |
| 25 µg/mL (≈ 44.5 µM) | COC(=O)CCCCCCCCOC(=O)/C=C/C[C@@H]1OC[C@H](NS(=O)(=O)c2cccc(Cl)c2)[C@@H](O)[C@H]1O |
